The nature of assay [1]: Cytotoxicity against rat L-6 cell line. The class given is functional, cell-based. To be noted: L6.
In another assay the test system is Plasmodium falciparum. The experiment in a line: In vitro antiplasmodial activity for chloroquine-resistant Plasmodium falciparum FcB1. It counts as functional, organism-based.
The species entered for another assay is Rattus norvegicus. The experiment in a line: Selectivity Index is expressed as the ratio of cytotoxicity (IC50) against rat L-6 cell line to that of antiplasmodial activity (IC50) of chloroquine-resistant strain FcB1 of Plasmodium falciparum. It counts as functional.

As a reminder, the IC50 is the midpoint of a concentration-inhibition curve.

The structures appear in SMILES notation.

`CC(C)=CCC(=O)O[C@@H]1C[C@H]2[C@@H](CC=C3C[C@@H](N(C)C)CC[C@@]32C)[C@@H]2CC[C@@H]3[C@H](C)N(C)C[C@]312`: the half-inhibitory concentration (IC50) was 5.13 µM in assay [1] and 1.13 µM with Plasmodium falciparum. In the assay listed under Rattus norvegicus, the Selectivity index was determined as 4.5.
On to `CN[C@H]1CC[C@@]2(C)C(=CC[C@H]3[C@@H]4CC[C@@H]5[C@H](C)N(C)C[C@@]54[C@H](OC(=O)CC=C(C)C)C[C@@H]32)C1`, for which the results for the IC50 (in assay [1]; in the assay with Plasmodium falciparum) were 7.49 µM and 0.97 µM, respectively. For the same compound, the Selectivity index in the assay listed under Rattus norvegicus came to 7.7.
The corresponding values for `CN[C@H]1CC[C@@]2(C)C(=CC[C@H]3[C@@H]4CC[C@@H]5[C@H](C)N(C)C[C@@]54CC[C@@H]32)C1` [ISOCONESSIMINE] are 36.6 µM, 3.39 µM and 10.8.
On to `C[C@H]1[C@H]2CC[C@H]3[C@@H]4CC=C5C[C@@H](N(C)C)CC[C@]5(C)[C@H]4CC[C@]23CN1C` [CONESSINE], for which the IC50 in assay [1] amounted to 14.6 µM; in the assay on Plasmodium falciparum, 1.04 µM. In addition, the Selectivity index in the assay listed under Rattus norvegicus amounted to 14.

For the origin of these results see ChEMBL document CHEMBL1139558, “Isolation, characterization and antiplasmodial activity of steroidal alkaloids from Funtumia elastica (Preuss) Stapf” (Bioorg Med Chem Lett, 2005).
